Data: DBAASP
≈ marks a conversion by molar mass, not a printed value.

Legend:
Assay in all cases: ≥ marks a high value that may be exact or a test limit, other limits are often not marked, values filed in µg/mL are converted to µM
Bacillus subtilis = tested on: Bacillus subtilis
Escherichia coli = tested on: Escherichia coli
Klebsiella pneumoniae = tested on: Klebsiella pneumoniae
Micrococcus luteus = tested on: Micrococcus luteus
Proteus mirabilis = tested on: Proteus mirabilis
Pseudomonas aeruginosa = tested on: Pseudomonas aeruginosa
Salmonella typhimurium = tested on: Salmonella typhimurium
Shigella dysenteriae = tested on: Shigella dysenteriae
Staphylococcus aureus = tested on: Staphylococcus aureus
[1] = tested on: Staphylococcus epidermidis
[2] = tested on: Bacillus subtilis ATCC 23857
[3] = tested on: Escherichia coli ATCC 25922
[4] = tested on: Klebsiella pneumoniae ATCC 700603
[5] = tested on: Pseudomonas aeruginosa ATCC 9027
[6] = tested on: Staphylococcus aureus ATCC 25923
Acinetobacter baumannii = tested on: Acinetobacter baumannii
[7] = tested on: Klebsiella pneumoniae ATCC 13883
[8] = tested on: Candida albicans ATCC 2002
[9] = tested on: Staphylococcus aureus ATCC 2592
[10] = tested on: Staphylococcus aureus ATCC 6538
[11] = tested on: Bacillus subtilis ATCC 6633

Row | Structure (SMILES) | MIC (Bacillus subtilis) [µM] | MIC (Escherichia coli) [µM] | MIC (Klebsiella pneumoniae) [µM] | MIC (Micrococcus luteus) [µM] | MIC (Proteus mirabilis) [µM] | MIC (Pseudomonas aeruginosa) [µM] | MIC (Salmonella typhimurium) [µM] | MIC (Shigella dysenteriae) [µM] | MIC (Staphylococcus aureus) [µM] | MIC [1] [µM] | MIC [3] [µM] | MIC [9] [µM] | further results
1 | CC(C)C[C@H](NC(=O)[C@H](C)NC(=O)CNC(=O)[C@H](CC(C)C)NC(=O)[C@@H](N)Cc1ccccc1)C(=O)N[C@@H](Cc1ccccc1)C(=O)N[C@@H](Cc1c[nH]c2ccccc12)C(=O)N[C@H](C(=O)N[C@@H](C)C(=O)N[C@@H](CO)C(=O)N[C@@H](CCCCN)C(=O)O)C(C)C [FLGALFWVASK] | ≥ 161 | > 161 | > 161 | ≥ 161 | ≥ 161 | > 161 | ≥ 161 | ≥ 161 | > 161 | ≥ 161 | – | – | –
2 | CC(C)C[C@H](NC(=O)[C@H](C)NC(=O)CNC(=O)[C@H](Cc1c[nH]c2ccccc12)NC(=O)[C@@H](N)Cc1ccccc1)C(=O)N[C@@H](Cc1ccccc1)C(=O)N[C@@H](CCCCN)C(=O)N[C@H](C(=O)N[C@@H](C)C(=O)N[C@@H](CO)C(=O)N[C@@H](CCCCN)C(=O)O)C(C)C [FWGALFKVASK] | ≥ 39.9 | 79.8 (≈ 100 µg/mL) | 79.8 (≈ 100 µg/mL) | ≥ 79.8 | ≥ 160 | > 160 | ≥ 160 | ≥ 160 | 19.9 (≈ 25 µg/mL) | ≥ 79.8 | – | – | –
3 | CC(C)C[C@H](NC(=O)[C@H](C)NC(=O)CNC(=O)[C@H](CC(C)C)NC(=O)[C@@H](N)Cc1c[nH]c2ccccc12)C(=O)N[C@@H](Cc1ccccc1)C(=O)N[C@@H](CCCCN)C(=O)N[C@H](C(=O)N[C@@H](C)C(=O)N[C@@H](CO)C(=O)N[C@@H](CCCCN)C(=O)O)C(C)C [WLGALFKVASK] | ≥ 82 | 164 (≈ 200 µg/mL) | > 164 | ≥ 82 | ≥ 164 | > 164 | ≥ 164 | ≥ 164 | 82 (≈ 100 µg/mL) | ≥ 164 | – | – | –
4 | CC[C@H](C)[C@H](NC(=O)[C@@H]1CCCN1C(=O)[C@H](CC(C)C)NC(=O)[C@@H](N)Cc1ccccc1)C(=O)N[C@H](C(=O)NCC(=O)N[C@@H](CCCCN)C(=O)N[C@@H](CC(C)C)C(=O)N[C@@H](CC(C)C)C(=O)N[C@@H](CO)C(=O)NCC(=O)N[C@@H](CC(C)C)C(=O)N[C@@H](CO)C(=O)NCC(=O)N[C@@H](CC(C)C)C(=O)N[C@@H](CC(C)C)C(N)=O)C(C)C [FLPIVGKLLSGLSGLL] | – | – | – | – | – | – | – | 0.922 (≈ 1.5 µg/mL) | – | – | 1.84 (≈ 3 µg/mL) | 1.23 (≈ 2 µg/mL) | MIC [8]: 4 µM (≈ 6.5 µg/mL)
5 | CC[C@H](C)[C@@H]1NC(=O)[C@H](CO)NC(=O)[C@H](CCCCN)NC(=O)[C@H]([C@@H](C)O)NC(=O)[C@H](Cc2c[nH]c3ccccc23)NC(=O)[C@@H](NC(=O)CNC(=O)[C@H](CCCCN)NC(=O)[C@H](CC(C)C)NC(=O)[C@H](C)NC(=O)[C@H](C)N)CSSC[C@@H](C(=O)N[C@@H](Cc2ccccc2)C(=O)NCC(=O)N[C@@H](Cc2ccccc2)C(=O)O)NC(=O)[C@@H]2CCCN2C(=O)[C@H](CCCCN)NC(=O)[C@@H]2CCCN2C(=O)[C@@H]2CCCN2C1=O [AALKGCWTKSIPPKPCFGF] | 1.19 (≈ 2.44 µg/mL) | – | – | – | – | – | – | – | – | – | 1.38 (≈ 2.84 µg/mL) | 1.03 (≈ 2.12 µg/mL) | MIC [8]: 2.32 µM (≈ 4.76 µg/mL)
6 | CC(C)C[C@H](NC(=O)[C@@H](N)Cc1ccccc1)C(=O)NCC(=O)N[C@@H](C)C(=O)N[C@@H](Cc1c[nH]c2ccccc12)C(=O)N[C@@H](Cc1ccccc1)C(=O)N[C@@H](CCCCN)C(=O)N[C@H](C(=O)N[C@@H](C)C(=O)N[C@@H](CO)C(=O)N[C@@H](CCCCN)C(=O)O)C(C)C [FLGAWFKVASK] | ≥ 160 | > 160 | > 160 | ≥ 160 | ≥ 160 | > 160 | ≥ 160 | ≥ 160 | > 160 | ≥ 160 | – | – | –
7 | CC(C)C[C@H](NC(=O)CNC(=O)[C@@H](NC(=O)[C@@H]1CCCN1C(=O)[C@H](CC(C)C)NC(=O)CNC(=O)[C@H](CC(N)=O)NC(=O)[C@H](CC(N)=O)NC(=O)[C@H](Cc1ccc(O)cc1)NC(=O)[C@@H](NC(=O)[C@H](CCCN=C(N)N)NC(=O)[C@H](CS)NC(=O)[C@H](CCCN=C(N)N)NC(=O)[C@H](Cc1cnc[nH]1)NC(=O)[C@H](CCCCN)NC(=O)[C@@H](N)CCCCN)C(C)C)[C@@H](C)O)C(=O)N[C@@H](Cc1ccc(O)cc1)C(=O)N[C@@H](CCCN=C(N)N)C(=O)N[C@@H](Cc1c[nH]c2ccccc12)C(=O)N[C@@H](CS)C(N)=O [KKHRCRVYNNGLPTGLYRWC] | – | – | – | – | – | – | – | – | – | – | – | – | MIC [10]: 2.4 µM (≈ 5.91 µg/mL)
8 | CC[C@H](C)[C@H](NC(=O)CNC(=O)[C@H](CO)NC(=O)[C@H](CC(C)C)NC(=O)[C@@H](N)Cc1ccccc1)C(=O)N[C@@H](CC(C)C)C(=O)N[C@@H](CCCCN)C(=O)N[C@@H](CC(C)C)C(=O)N[C@@H](C)C(=O)N[C@@H](Cc1ccccc1)C(=O)N[C@@H](CCCCN)C(=O)N[C@H](C(=O)N1CCC[C@H]1C(=O)N[C@@H](CO)C(=O)N[C@H](C(=O)N[C@@H](CC(C)C)C(=O)N[C@H]1CSSC[C@@H](C(=O)O)NC(=O)[C@H](CC(N)=O)NC(=O)[C@H](CCCCN)NC(=O)[C@H](CC(C)C)NC(=O)[C@H](C(C)C)NC(=O)[C@H](C)NC1=O)C(C)C)[C@@H](C)CC [FLSGILKLAFKIPSVLCAVLKNC] | 20.2 (≈ 50 µg/mL) | – | – | – | – | – | – | – | – | – | 10.1 (≈ 25 µg/mL) | 5.04 (≈ 12.5 µg/mL) | MIC [8]: 10.1 µM (≈ 25 µg/mL)

Now from value to compound, other results behind:

Row | MIC (Bacillus subtilis) [µM] | MIC (Escherichia coli) [µM] | MIC (Klebsiella pneumoniae) [µM] | MIC (Micrococcus luteus) [µM] | MIC (Proteus mirabilis) [µM] | MIC (Pseudomonas aeruginosa) [µM] | MIC (Salmonella typhimurium) [µM] | MIC (Shigella dysenteriae) [µM] | MIC (Staphylococcus aureus) [µM] | MIC [1] [µM] | MIC [3] [µM] | MIC [9] [µM] | Structure (SMILES) | further results
9 | – | – | – | – | – | – | – | – | – | – | 16 (≈ 23.2 µg/mL) | – | CC[C@H](C)[C@H](NC(=O)[C@H](CCCCN)NC(=O)[C@H](CCCCN)NC(=O)[C@H](C)NC(=O)[C@@H](NC(=O)[C@H](C)NC(=O)[C@H](CC(C)C)NC(=O)[C@H](CC(C)C)NC(=O)[C@H](CCCCN)NC(=O)[C@H](CCCCN)NC(=O)[C@H](CC(C)C)NC(=O)[C@H](CC(N)=O)NC(=O)[C@@H](N)CC(C)C)C(C)C)C(N)=O [LNLKKLLAVAKKI] | MIC [2]: 8 µM (≈ 11.6 µg/mL); MIC [4]: 64 µM (≈ 92.9 µg/mL); MIC [5]: 16 µM (≈ 23.2 µg/mL); MIC [6]: 128 µM (≈ 186 µg/mL)
10 | – | – | – | – | – | – | – | – | – | – | > 25 | – | CC[C@H](C)[C@H](NC(=O)[C@H](CC(C)C)NC(=O)[C@H](CCC(N)=O)NC(=O)[C@@H](NC(=O)[C@H](CC(C)C)NC(=O)[C@H](CCCN=C(N)N)NC(=O)[C@H](CCCN=C(N)N)NC(=O)[C@@H](NC(=O)[C@H](C)NC(=O)[C@H](CCCCN)NC(=O)[C@H](CCCN=C(N)N)NC(=O)[C@H](CC(C)C)NC(=O)[C@@H](NC(=O)[C@H](C)NC(=O)[C@@H](NC(=O)[C@H](C)N)[C@@H](C)O)[C@@H](C)CC)[C@@H](C)O)C(C)C)C(=O)O [ATAILRKATRRLVQLI] | MIC (Acinetobacter baumannii): 25 µM (≈ 45.6 µg/mL); MIC [4]: > 25 µM; MIC [5]: > 25 µM; MIC [6]: > 25 µM
11 | – | – | 3 (≈ 4.82 µg/mL) | – | – | – | – | – | 3 (≈ 4.82 µg/mL) | – | – | – | CC[C@H](C)[C@H](N)C(=O)N[C@@H](CC(N)=O)C(=O)N[C@@H](CC(C)C)C(=O)N[C@@H](CCCCN)C(=O)N[C@H](C(=O)N[C@@H](CC(C)C)C(=O)N[C@@H](C)C(=O)N[C@@H](CCCN=C(N)N)C(=O)N[C@@H](CC(C)C)C(=O)N[C@@H](C)C(=O)N[C@@H](CCCCN)C(=O)N[C@@H](CCCCN)C(=O)N[C@H](C(=O)N[C@@H](CC(C)C)C(N)=O)[C@@H](C)CC)[C@@H](C)CC [INLKILARLAKKIL] | MIC [7]: 3 µM (≈ 4.82 µg/mL); MIC [6]: 6.25 µM (≈ 10 µg/mL)
12 | 19 (≈ 25 µg/mL) | 38 (≈ 50 µg/mL) | 76 (≈ 100 µg/mL) | ≥ 152 | ≥ 152 | 152 (≈ 200 µg/mL) | ≥ 152 | ≥ 152 | 9.49 (≈ 12.5 µg/mL) | ≥ 38 | – | – | CC(C)C[C@H](NC(=O)[C@@H](NC(=O)[C@H](CCCCN)NC(=O)[C@H](CO)NC(=O)[C@H](C)NC(=O)[C@@H](NC(=O)[C@H](CCCCN)NC(=O)[C@H](Cc1ccccc1)NC(=O)[C@H](CC(C)C)NC(=O)[C@H](C)NC(=O)CNC(=O)[C@H](CC(C)C)NC(=O)[C@H](C)N)C(C)C)C(C)C)C(=O)O [ALGALFKVASKVL] | –
13 | – | – | – | – | – | – | – | – | – | – | – | 6.79 (≈ 12.5 µg/mL) | CC[C@H](C)[C@H](NC(=O)[C@H](CCCCN)NC(=O)[C@@H]1CCCN1C(=O)[C@H](Cc1ccccc1)NC(=O)[C@@H](NC(=O)[C@H](CO)NC(=O)CNC(=O)[C@H](CC(C)C)NC(=O)[C@H](C)NC(=O)[C@H](CCCCN)NC(=O)[C@H](CC(C)C)NC(=O)[C@H](C)NC(=O)[C@@H](NC(=O)[C@@H]1CCCN1C(=O)[C@H](CC(C)C)NC(=O)[C@@H](N)Cc1ccccc1)[C@@H](C)CC)[C@@H](C)CC)C(=O)N[C@@H](CC(C)C)C(N)=O [FLPIALKALGSIFPKIL] | MIC [11]: 27.2 µM (≈ 50 µg/mL)
